The record followed here is patent publication US9926269B2, “Beta-lactam cholesterol absorption inhibitors” (Rudjer Boskovic Institute, priority 2013, dated 2018).

Some results are limits rather than exact numbers.

Holding throughout (assay type): cell-based
Data set [1] is described as follows: Cytotoxicity assay (MTT cell proliferation assay), MDCKII cells. The note with it: dog, 72 h incubation, read-out: MDCKII LC50. The protocol: (§1) The cells were grown at 37° C. in a humidified 5% CO2 incubator. Stable transfection of MDCKII cells with human NPC1L1 protein was performed using the Lipofectamine LTX (Invitrogen, USA) according to the manufecturer's protocol. Selection with 1000 μg/mL G418 (Sigma-Aldrich, Germany) was started 2 days after transfection. The concentration of G418 was decreased to 500 μg/mL after 14 days. Transfected cells were maintained in DMEM (Dulbecco's Modified Eagle Medium) containing 100 units/mL penicillin and 100 μg/mL streptomycin supplemented with 10% FCS and 500 μg/mL G418.
(§2) For the cytotoxicity determination, MDCKII, hNPC1L1/MDCKII and HepG2 cells were seeded in 96-well microtiter plates on day 0 at the density of 3000 cells/well. […] The compound cytotoxicity was assessed on day 4 performing the MTT cell proliferation assay (Sigma-Aldrich, Germany) which detects mitochondrial dehydrogenase activity in viable cells. (Mosmann, T. J. Immunol. Methods 1983, 65, 55.) The results are expressed as LC50 and the values for each compound were calculated from dose-response curves using linear regression analysis. Each concentration was tested in quadruplicate in three independent experiments (Table 1).

A short description of data set [2]: Cytotoxicity assay (MTT cell proliferation assay), HepG2 cells. The note with it: human, 72 h incubation, read-out: HepG2 LC50. Here is the method: as §1, §2
Background: Tetrazolium dyes change colour on reduction, which living cells bring about.

The nature of data set [3]: Cytotoxicity assay (MTT cell proliferation assay), hNPC1L1/MDCKII cells. The note with it: dog, MDCKII cells stably expressing human NPC1L1 (hNPC1L1/MDCKII), 72 h incubation, read-out: hNPC1L1MDCKII LC50. Here is the method:
as §1, §2

In data set [4] the test system is MDCKII cells stably expressing human NPC1L1 (hNPC1L1/MDCKII). The description is as above. The note with it: 72 h incubation, read-out: hNPC1L1MDCKII LC50. Here is the method:
as §1, §2

For the molecule `O=C1[C@H](NC[C@H](O)c2ccc(F)cc2)[C@@H](c2ccc(O)cc2)N1c1ccc(F)cc1` [Compound 8, (3R,4R)-3-[(2R)-2-(4-fluorophenyl)-2-hydroxyethylamino]-1-(4-fluorophenyl)-4-(4-hydroxyphenyl)azetidin-2-one], the CC50 at 72 h in data set [1], in data set [2] and in data set [3] was above 100 µM throughout.
Turning to `O=C(/C=C/c1ccc(F)cc1)N[C@H]1C(=O)N(c2ccc(F)cc2)[C@@H]1c1ccc(O)cc1` [Compound 3, (E)-1-[(3R,4R)-1-(4-fluorophenyl)-4-(4-hydroxyphenyl)-2-oxo-3-azetidinylamino]-3-(4-fluorophenyl)-2-propen-1-one], in data set [4], the CC50 came to 63.3 µM.
Take `O=C1[C@H](NC[C@@H](O)c2ccc(F)cc2)[C@@H](c2ccc(O)cc2)N1c1ccc(F)cc1` [Compound 9, (3R,4R)-3-[(2S)-2-(4-fluorophenyl)-2-hydroxyethylamino]-1-(4-fluorophenyl)-4-(4-hydroxyphenyl)azetidin-2-one]: the CC50 at 72 h in data set [1], in data set [2] and in data set [3] was above 100 µM each time.
Take `O=C1[C@H](NCC(O)c2ccc(F)cc2)[C@@H](c2ccc(O)cc2)N1c1ccc(F)cc1` (mixture of isomers) [8/9-70/30, (3R,4R)-3-[(2R/S)-2-(4-fluorophenyl)-2-hydroxyethylamino]-1-(4-fluorophenyl)-4-(4-hydroxyphenyl)azetidin-2-one]: the CC50 at 72 h in data set [1], in data set [2] and in data set [3] was above 100 µM throughout.
